# Molecular target: T1, 2-HID (Pueraria montana, UniProt E9M5G1)
# T1 construct: His-tagged (Ni-NTA) from pDEST17, expressed in E. coli BL21(DE3); first eight residues not observed; one molecule per asymmetric unit
# T1 sequence (E9M5G1 1-325): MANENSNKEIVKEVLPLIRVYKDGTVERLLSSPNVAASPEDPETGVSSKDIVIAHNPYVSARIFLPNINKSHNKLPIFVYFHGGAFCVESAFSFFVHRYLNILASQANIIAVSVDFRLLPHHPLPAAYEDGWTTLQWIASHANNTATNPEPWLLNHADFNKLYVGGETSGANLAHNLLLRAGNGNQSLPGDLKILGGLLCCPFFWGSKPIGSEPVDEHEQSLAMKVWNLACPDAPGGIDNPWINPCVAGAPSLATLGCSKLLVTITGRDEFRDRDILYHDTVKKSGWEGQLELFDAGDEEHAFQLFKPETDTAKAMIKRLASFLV
# Experiment: X-ray crystal structure, co-crystallization, […] Å
# Format: binding
# Conditions: carboxylesterase product; active site, hydrogen bond to Thr168; complex is 8EA1 or 8EA2, paper does not say which
compound,measurement,value
O=[N+]([O-])c1ccc(O)cc1 [p-nitrophenol],"X-ray crystal structure, co-crystallization, 2.3 Å","only a structure of 2-HID complexed with p-nitrophenol, a product of the carboxylesterase reaction"

# From paper PMC9663428, “The protein conformational basis of isoflavone biosynthesis” (Communications Biology, 2022)
